Test results published in PMC10065799, “High-throughput profiling of sequence recognition by tyrosine kinases and SH2 domains using bacterial peptide display” (eLife, 2023).

Target: T1, c-Abl kinase domain (Mus musculus, UniProt P00520)
T1 sequence (P00520 242-493 limits assumed): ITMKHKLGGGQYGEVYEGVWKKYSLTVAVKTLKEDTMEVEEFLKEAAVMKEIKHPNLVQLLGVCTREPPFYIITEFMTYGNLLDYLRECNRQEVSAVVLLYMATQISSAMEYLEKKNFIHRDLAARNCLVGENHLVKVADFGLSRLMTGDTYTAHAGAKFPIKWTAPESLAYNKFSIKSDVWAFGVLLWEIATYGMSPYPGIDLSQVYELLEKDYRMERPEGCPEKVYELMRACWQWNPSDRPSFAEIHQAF
Test: pTyr-Var library bacterial peptide display kinase screen (enrichment scores)
Type: biochemical
Details: variant versus reference peptide

## DRVALYVAREG [AACS_Y117_I118V]
  c-Abl difference (mean log2 variant - mean log2 reference): -0.3292
